Data from patent publication US20220168430A1, “THERAPEUTIC METHODS FOR TREATING HEPATITIS B” (priority 2019, published 2022).
Where two headings read alike, the source gives them in different places.

System: HBV rcDNA
Test: Dual agent combination in HepDE19 cells, rcDNA by Quantigene 2.0 bDNA assay (Examples 5-8)
Format: cell-based, HBV; HepDE19 (HepG2 human hepatocarcinoma derived)
Details: for inhibition at 0.01 µM / inhibition at 0.02 µM / inhibition at 0.039 µM / inhibition at 0.156 µM / inhibition at 1.25 µM: HepDE19, Expt 2; for inhibition at 0.01 µM: TDF 0.010 μM alone; for inhibition at 0.02 µM: TDF 0.020 μM alone; for inhibition at 0.039 µM: TDF 0.039 μM alone; for inhibition at 0.156 µM: TDF 0.156 μM alone; for inhibition at 1.25 µM: TDF 1.250 μM alone
Protocol: In vitro dual agent combination studies were conducted using the method of Prichard and Shipman 1990 (Prichard M N, Shipman C, Jr. 1990. Antiviral Res 14:181-205). The HepDE19 cell culture system is a HepG2 (human hepatocarcinoma) derived cell line that supports HBV DNA replication and cccDNA formation under control the control of a CMV Tet-off promoter system (Guo et al. 2007. J Virol 81:12472-84). HepDE19 (50,000 cells/well) were plated in 96 well collagen-coated tissue-culture treated microtiter plates in DMEM/F12 medium supplemented with 10% fetal bovine serum+1% penicillin-streptomycin with tetracycline (1 μg/mL) and incubated in a humidified incubator at 37° C. and 5% CO2 overnight. Next day, the cells were switched to fresh medium without tetracycline and incubated for 4 hrs at 37° C. and 5% CO2. The cells were switched to fresh medium and treated with inhibitor A and inhibitor B, at concentration range spanning their respective EC50 values. […] The two inhibitors were tested both singly as well as in combinations in a checkerboard fashion such that each concentration of inhibitor A was combined with each concentration of inhibitor B to determine their combination effects on inhibition of rcDNA production. There were four replicates of each concentration combination in each experiment. The plates were incubated for 7 days in a humidified incubator at 37° C. and 5% CO2. The level of rcDNA present in the wells was measured using a Quantigene 2.0 bDNA assay kit (Affymetrix, Santa Clara, Calif.) with HBV specific custom probe set (genotype D ayw) and according to the manufacturer's instructions and read using a luminescence plate reader and the relative luminescence units (RLU) data generated from each well was calculated as % inhibition of the untreated control wells and analyzed using the MacSynergy II program to determine whether the combinations were synergistic, additive or antagonistic using the interpretive guidelines established by Prichard and Shipman (Prichard M N, Shipman C, Jr. 1990. […] Each experiment was repeated at least three times and the averages and standard deviations of individual determinations was calculated to derive the conclusion. Concurrently, in each experiment, the effect of inhibitor combinations on cell viability was assessed using replicate plates in triplicates that were used to determine the ATP content as a measure of cell viability using the Cell-Titer Glo reagent (Promega, Madison, Wis.) as per the manufacturer's instructions.

[1] = Hepatitis B virus, read-out: ADDITIVE INHIBITION
[2] = Hepatitis B virus, read-out: AVERAGE % INHIBITION

In the case of CC(C)OC(=O)OCOP(=O)(CO[C@H](C)Cn1cnc2c(N)ncnc21)OCOC(=O)OC(C)C.O=C(O)/C=C/C(=O)O [TDF, tenofovir disoproxil fumarate, reference compound], the “SYNERGY PLOT (99%) Bonferroni Adj. 55%” value is reported as 0, the “ADDITIVE INHIBITION” value (Expt 1, TDF 0.009 μM alone) is reported as −0.25 and the “ADDITIVE INHIBITION” value (Expt 1, TDF 0.083 μM alone) is reported as 45.88. For the same compound, the “ADDITIVE INHIBITION” value (Expt 1, TDF 0.750 μM alone) was 98, the “ADDITIVE INHIBITION” value (Expt 3, TDF 0.009 μM alone) was 32.54 and the “ADDITIVE INHIBITION” value (Expt 3, TDF 0.083 μM alone) was 76.04. The “ADDITIVE INHIBITION” value (Expt 3, TDF 0.750 μM alone) was 96.97, the inhibition at 0.009 µM (Hepatitis B virus, HepDE19, Expt 1, TDF 0.009 μM alone) was -0.25% and the inhibition at 0.083 µM (Hepatitis B virus, HepDE19, Expt 1, TDF 0.083 μM alone) was 45.9%. The inhibition at 0.75 µM (Hepatitis B virus, HepDE19, Expt 1, TDF 0.750 μM alone) was 98%, the inhibition at 0.01 µM [1] was 4.67% and the inhibition at 0.01 µM [2] was 4.67%. It also gave an inhibition at 0.02 µM [1] of -12.9%, an inhibition at 0.02 µM [2] of -12.9% and an inhibition at 0.039 µM [1] of 35.9%. The inhibition at 0.039 µM [2] was 35.9%, the inhibition at 0.156 µM [1] was 77.1% and the inhibition at 0.156 µM [2] was 77.1%. It also gave an inhibition at 1.25 µM [1] of 98.4%, an inhibition at 1.25 µM [2] of 98.4% and an inhibition at 0.009 µM (Hepatitis B virus, HepDE19, Expt 3, TDF 0.009 μM alone) of 32.5%. For the same compound, the inhibition at 0.083 µM (Hepatitis B virus, HepDE19, Expt 3, TDF 0.083 μM alone) was 76%, the inhibition at 0.75 µM (Hepatitis B virus, HepDE19, Expt 3, TDF 0.750 μM alone) was 97% and the EC50 (Hepatitis B virus, HepDE19, combination studies with Cmpd 1, read-out: Avg. Inhibitor B EC50) was 64 nM.
